Structures can show the parent of a compound that is named as a salt.
What was measured:
[1] = test system: CAKI-1 human renal tumor xenografts; conditions: i.v., equivalent dosages
Experimental: The 0.8 mg/mL solution was diluted with saline to 0.53 and 0.35 mg/mL.
The 0.975 mg/mL solution was further diluted with saline to 0.65 and 0.43 mg/mL.
Both compounds and vehicle were administered to mice by animal's body weight on each day of treatment with the injection volume being 0.1 mL/10 g of body weight.
Tumors were measured and volume determined using formula L×W^2/2=mm^3; and weight calculated assuming 1 mm^3=1 mg. The study was terminated 95 days after tumor implantation.

in vivo = conditions: male, athymic NCr-nu/nu, mouse, iv, 8 mg/kg
[2] = in vivo; cited from earlier work
[3] = cumulative dose; cited from earlier work

Row | Structure (SMILES) | difference in tumor growth, DOX orotate compared with DOX [1] | concentration at 1 day after the last injection (day 26) (in vivo) | AUC [2] | total dosage at which irreversible myocardial toxicity leading to congestive heart failure may be encountered [3]
1 | COc1cccc2c1C(=O)c1c(O)c3c(c(O)c1C2=O)C[C@@](O)(C(=O)CO)C[C@@H]3O[C@H]1C[C@H](N)[C@H](O)[C@H](C)O1.O=C(O)c1cc(=O)[nH]c(=O)[nH]1 [DOX orotate, doxorubicin orotate] | no significant difference |  |  | 
2 | COc1cccc2c1C(=O)c1c(O)c3c(c(O)c1C2=O)C[C@@](O)(C(=O)CO)C[C@@H]3O[C@H]1C[C@H](N)[C@H](O)[C@H](C)O1 [DOX, (85, 105)-10-[(3-amino-2,3,6-trideoxy-(c-L-lyxo-hexopyranosyl)oxy]-8-glycolyl 1-7,8,9,10-tetrahydro-6,8,11-trihydroxy-1-methoxy-5,12-naphthacenedione hydrochloride] |  | 7400 ng/g | 9900 µg·h/mL | ~550 mg/m^2

— patent US8148339B2, “Method of reducing cardiac levels of doxorubicin when given as orotate salt” (Savvipharm Inc, priority 2006, dated 2012)
